Reference: PMC8623179, “Design and Microwave Synthesis of New (5Z) 5-Arylidene-2-thioxo-1,3-thiazolinidin-4-one and (5Z) 2-Amino-5-arylidene-1,3-thiazol-4(5H)-one as New Inhibitors of Protein Kinase DYRK1A” (Pharmaceuticals, 2021)
“And” between values parts separate entries of the source, which are not always exact repeats. Identical values can stand only once. Like-named read-outs stand apart in the source and are kept apart here.

Assays:
GSK-3α/β [1] = details: read-out: IC50 GSK3α/β, positive control, cited from earlier work
Casein kinase 1 (CK1δ/ε) [2] = details: read-out: IC50 CK1, positive control, cited from earlier work
DYRK1A [3] = details: reported; cited from earlier work
PC3 = assay: Cell survival assay, PC3; format: cell-based; details: Homo sapiens, PC-3; 48 h exposure, nuclei count; read-out: Cell Lines IC50 PC3
Experimental: (§1) Skin diploid fibroblastic cells were provided by BIOPREDIC International Company (Rennes, France). […] Cells were grown according to ECACC recommendations. The toxicity test of the compounds on these cells was as follows: 2 × 10^3 cells for HCT-116 cells or 4 × 10^3 for the other cells were seeded in 96-multi-well plates in triplicate and left for 24 h for attachment, spreading and growing. Then, cells were exposed for 48 h to increasing concentrations of the compounds, ranging from […], in a final volume of 120 μL of culture medium. […] The IC50 were graphically determined.

Fibroblasts = assay: Cell survival assay, normal skin diploid fibroblasts; format: cell-based; details: Fibroblast; normal cells, 48 h exposure, nuclei count; read-out: Cell Lines IC50 Fibroblasts
Experimental: as §1

GSK-3α/β [4] = assay: GSK-3α/β kinase assay; format: biochemical, porcine; details: Table 4; 15 μM ATP; read-out: IC50 GSK3α/β
Experimental: (§2) The twenty-two (5Z) 5-arylidene-2-thioxo-1,3-thiazolidin-4-ones 3a–v and the twenty-four (5Z) 2-amino-5-arylidene-1,3-thiazolidin-4(5H)-ones 5a–x were evaluated against four different and representative in vitro kinase assays DYRK1A (dual specificity tyrosine phosphorylation regulated kinase), CK1 δ/e (caseine kinase 1), CDK5/p25 (cyclin dependant kinase), and GSK3 α/β (glycogen synthase kinase 3) to evaluate their inhibition potency. […] All the compounds were initially tested at a 10 μM concentration.
(§3) After 30-min incubation at 30 °C, the reaction was stopped by harvesting, using a FilterMate harvester (Packard), onto P81 phospho-cellulose papers (GE Healthcare, Chicago, IL, USA) which were washed in 1% phosphoric acid. Scintillation fluid was added and the radioactivity measured in a Packard counter. Blank values were subtracted and activities calculated as pmoles of phosphate incorporated for the 30-min incubation. The activities were expressed in % of the maximal activity, i.e., in the absence of inhibitors. Controls were performed with appropriate dilutions of DMSO.
GSK-3α/β (porcine brain, native) was assayed, as described for CDK5/p25 but in Buffer A and using a GSK-3 specific substrate (GS-1: […]pEDEEE) (pS stands for phosphorylated serine). GS-1 was synthesized by Millegen (Labege, France).

NCI-H727 = assay: Cell survival assay, NCI-H727; format: cell-based; details: Homo sapiens, 48 h exposure, nuclei count, read-out: Cell Lines IC50 NCI-H727
Experimental: as §1

Caco2 = assay: Cell survival assay, Caco2; format: cell-based; details: Homo sapiens, Caco-2; 48 h exposure, nuclei count; read-out: Cell Lines IC50 Caco2
Experimental: as §1

HCT116 = assay: Cell survival assay, HCT116; format: cell-based; details: Homo sapiens, HCT-116; 48 h exposure, nuclei count; read-out: Cell Lines IC50 HCT116
Experimental: as §1

MDA-MB231 = assay: Cell survival assay, MDA-MB231; format: cell-based; details: Homo sapiens, MDA-MB-231; 48 h exposure, nuclei count; read-out: Cell Lines IC50 MDA-MB231
Experimental: as §1

DYRK1A [5] = target: T1, DYRK1A (Rattus norvegicus, UniProt Q63470); assay: DYRK1A kinase assay; format: biochemical; details: Table 4; 15 μM ATP
T1 construct: GST; made in house; host or cells: Escherichia coli
Experimental: as §2
as §3, with “DMSO. […]” for “DMSO.”

CDK5/p25 = target: T2, CDK5/p25 (Homo sapiens, UniProt Q00535); assay: CDK5/p25 kinase assay; format: biochemical; details: Table 4; 15 μM ATP
T2 construct: made in house
T2 sequence (Q00535 whole entry): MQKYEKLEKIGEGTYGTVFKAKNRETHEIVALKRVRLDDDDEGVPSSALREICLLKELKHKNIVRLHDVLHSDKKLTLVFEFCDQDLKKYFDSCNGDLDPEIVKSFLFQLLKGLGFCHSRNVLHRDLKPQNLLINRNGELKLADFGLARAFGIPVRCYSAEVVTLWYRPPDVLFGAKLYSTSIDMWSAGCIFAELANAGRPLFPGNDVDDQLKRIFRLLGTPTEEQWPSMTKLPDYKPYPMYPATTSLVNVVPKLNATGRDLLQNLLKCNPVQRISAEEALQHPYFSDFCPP
T2 sequence (Q15078 99-307 partner limits assumed): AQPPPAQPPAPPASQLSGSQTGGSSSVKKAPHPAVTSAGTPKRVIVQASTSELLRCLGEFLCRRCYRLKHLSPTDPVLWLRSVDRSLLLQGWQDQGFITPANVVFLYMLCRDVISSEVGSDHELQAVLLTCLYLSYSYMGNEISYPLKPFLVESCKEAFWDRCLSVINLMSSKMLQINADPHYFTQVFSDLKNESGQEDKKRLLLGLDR
Experimental: as §2, §3
CDK5/p25 (human, recombinant) was prepared as previously described. […] ATP (3000 Ci/mmol; 10 mCi/mL) in a final volume of 30 μL. After 30-min incubation at 30 °C, 25 μL aliquots of supernatant were spotted onto 2.5 × 3 cm pieces of Whatman P81 phospho-cellulose paper, and, 20 s later, the filters were washed five times (for at least 5 min each time) in a solution of 10 mL phosphoric acid/litter of water. The wet filters were counted in the presence of 1 mL ACS (Amersham, UK) scintillation fluid.

Huh7 D12 = assay: Cell survival assay, Huh7 D12; format: cell-based; details: Huh-7D12; 48 h exposure, nuclei count; read-out: Cell Lines IC50 Huh7 D12
Experimental: as §1

Casein kinase 1 (CK1δ/ε) [6] = assay: CK1δ/ε kinase assay; format: biochemical, porcine; details: Table 4; 15 μM ATP; read-out: IC50 CK1
Experimental: as §2, §3
Casein kinase 1 (CK1δ/ε) (porcine brain, native) was assayed with 0.67 µg of CKS peptide ([…]pSAYSITA), a CK1 specific substrate obtained from Millegen (Labege, France).

[7] = Table 5, same values as Table 4

Structure (SMILES)	IC50 (GSK-3α/β [1]; Table 4) [µM]	IC50 (GSK-3α/β [1]; [7]) [µM]	IC50 (Casein kinase 1 (CK1δ/ε) [2]; Table 4) [µM]	IC50 (Casein kinase 1 (CK1δ/ε) [2]; [7]) [µM]	IC50 (DYRK1A [3])	IC50 (PC3) [µM]	IC50 (Fibroblasts) [µM]	IC50 (GSK-3α/β [4]) [µM]	IC50 (NCI-H727) [µM]	IC50 (Caco2) [µM]	IC50 (HCT116) [µM]	IC50 (MDA-MB231) [µM]	melting point [°C]	IC50 (DYRK1A [5]) [µM]	IC50 (CDK5/p25) [µM]	IC50 (Huh7 D12) [µM]	IC50 (Casein kinase 1 (CK1δ/ε) [6]) [µM]
COc1ccc2c(c1)[nH]c1c(C)nccc12 [Harmine]	> 10	> 10	1.5	1.5	[…]												
COc1ccc(/C=C2\SC(=S)NC2=O)cc1O [Compound 3b, (5Z)-5-(3-Hydroxy-4-methoxybenzylidene)-2-thioxo-1,3-thiazolidin-4-one]						> 25	> 25	> 10	> 25	> 25	> 25	> 25	222 to 224	1.4	> 10	> 25	> 10
